Experimental data reported in patent US7632654B2, “Means and methods for detecting endoglycosidase activity” (Academisch Ziekenhuis bij de Universiteit van Amsterdam, priority 2002, dated 2009).
One block for each molecule: values may come before it.

How the values were obtained:
[1] = test system: bacterial chitinase, 39 and 50 kDa forms of human and mouse chitotriosidase and AMCases, fetal calf serum chitinase; assay: CHIS versus 4-MU-chitobiose as substrate for other chitinases; assay type: biochemical; conditions: in all cases (not shown)
Description: For this purpose, assays were performed with CHIS and 4-MU-chitobiose as substrate with bacterial chitinase (Sigma), purified recombinant 39 and 50 kDa forms of human and mouse chitotriosidase and AMCases and purified fetal calf serum chitinase.

chitotriosidase = target: T1, chitotriosidase (Homo sapiens, UniProt Q13231); assay: incubation of pure chitotriosidase with 4-MU-hexosamine and PNP-chitobiose (hydrolysis/transglycosylation); assay type: biochemical; conditions: substrate alone, 50 microM
T1 construct: made in house
T1 sequence (Q13231 22-466): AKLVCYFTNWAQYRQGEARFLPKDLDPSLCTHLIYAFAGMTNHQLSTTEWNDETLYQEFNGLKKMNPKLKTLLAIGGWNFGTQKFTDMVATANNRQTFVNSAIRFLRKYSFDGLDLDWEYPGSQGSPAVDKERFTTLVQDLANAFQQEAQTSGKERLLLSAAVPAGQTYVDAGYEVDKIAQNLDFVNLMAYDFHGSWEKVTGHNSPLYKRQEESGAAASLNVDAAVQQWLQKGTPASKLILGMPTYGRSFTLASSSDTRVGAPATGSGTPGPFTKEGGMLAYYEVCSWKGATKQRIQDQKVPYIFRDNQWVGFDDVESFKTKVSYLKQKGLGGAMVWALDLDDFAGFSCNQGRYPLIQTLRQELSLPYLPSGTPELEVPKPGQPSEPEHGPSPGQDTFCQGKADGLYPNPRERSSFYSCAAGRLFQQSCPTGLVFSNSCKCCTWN
Description: FIG. 2. […] Activity of 50 kDa recombinant human chitotriosidase towards PNPchitobiose, 4MU-hexosamine and a mixture of both substrates. Panel A: incubation 1. Enzyme was incubated with 50 microM PNPchitobiose and the reaction was stopped at indicated time points by adding excess of 0.2 M glycine-NaOH @H1O.3). Release of the hydrolysis product p-nitrophenol was determined spectrometrically at […]. Panel B: incubation 2. Enzyme was incubated with 50 microM 4MU-hexosamine and the reaction was stopped at indicated time points by adding excess of 0.2 M glycine-NaOH (pHlO.3). Release of the hydrolysis product 4-methyl-umbelliferone was determined fluorometrically (excitation at 366 nm; emission at 445 nm). Panel C: incubation 3. Enzyme was incubated with 50 microM PNPchitobiose and 50 microM 4MU-hexosamine and the reaction was stopped at indicated time points by adding excess of 0.2 M glycine-NaOH (pHlO.3). Release of hydrolysis products was measured spectrometrically and fluoremetrically.
FIG. 2A. Transglycosylation by chitotriosidase. Explanation for the outcome of the experiment depictured in FIG. 2. Chitotriosidase is able to remove chitobiose-unit from PNP-chitobiose, resulting in release of PNP that is spectrometrically detected. (FIG. 2 panel A). […]

[2] = target: T2, lysozyme from chicken egg (Gallus gallus, UniProt P00698); assay: substrate preference of lysozyme, 4MU release; assay type: biochemical; conditions: lysozyme from chicken egg (Sigma)
T2 construct: lysozyme from chicken egg; purchased Sigma; host or cells: chicken egg
T2 sequence (P00698 19-147): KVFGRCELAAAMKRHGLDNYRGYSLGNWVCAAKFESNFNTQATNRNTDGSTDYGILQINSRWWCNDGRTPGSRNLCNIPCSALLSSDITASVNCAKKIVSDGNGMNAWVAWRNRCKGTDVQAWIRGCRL
Source text: (§1) Substrate preference of lysozyme. The enzymatic activity of commercial lysozyme preparations was 25 measured with 4-MU-chitobioside and 4MU-deoxychitbioside substrates. The release of 4MU was detected fluorimetrically, as described before. Similar to the findings for chitotriosidase (chitinase), the activity measured with the deoxy-subsytrate is far higher: […]

[3] = target: T3, lysozyme from human neutrophils (Homo sapiens, UniProt P61626); assay: substrate preference of lysozyme, 4MU release; assay type: biochemical; conditions: lysozyme from human neutrophils (Sigma)
T3 construct: lysozyme from human neutrophils; purchased Sigma; host or cells: human neutrophils
T3 sequence (P61626 19-148): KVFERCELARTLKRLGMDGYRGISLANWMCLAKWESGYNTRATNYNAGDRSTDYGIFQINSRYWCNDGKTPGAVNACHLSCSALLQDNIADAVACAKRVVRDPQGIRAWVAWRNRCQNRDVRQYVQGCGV
Source text: as §1

lysozyme from human milk = target: T4, lysozyme from human milk (Homo sapiens, UniProt P61626); assay: substrate preference of lysozyme, 4MU release; assay type: biochemical; conditions: lysozyme from human milk (Sigma)
T4 construct: lysozyme from human milk; purchased Sigma; host or cells: human milk
T4 sequence (P61626 19-148): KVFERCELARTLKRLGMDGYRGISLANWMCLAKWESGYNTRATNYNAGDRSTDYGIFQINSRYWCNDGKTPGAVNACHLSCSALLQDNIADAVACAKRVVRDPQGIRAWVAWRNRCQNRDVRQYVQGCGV
Source text: as §1

50 kDa chitotriosidase = target: T5, 50 kDa chitotriosidase (Homo sapiens, UniProt Q13231); assay: hydrolysis of 4-MU substrates by pure 50 kDa chitotriosidase, fluorimetric 4-MU release; assay type: biochemical; conditions: 37 C
T5 construct: made in house
T5 sequence (Q13231 22-466): as the sequence (Q13231 22-466) above
Description: FIG. 3. Substrate concentration dependency of chitriosidase activity with novel artificial substrate as compared to present one. Activity of 50 kDa chitotriosdase towards 4-MU-chitobiose and 4-deoxy-variant hereof (CHIS1). Enzyme was incubated at 37 C with indicated concentrations of substrates. Reactions were stopped after 10 minutes and 4-MU measured fluorometrically.
FIG. 4. Improved linearity of chitotriosidase assay with time and enzyme concentration. Activity of 50 kDa chitotriosdase towards 4-MU-chitobiose and 4-deoxy-variant hereof (CHIS). Reaction time (FIG. 5a) and concentration of enzyme (FIG. 5b) were varied and enzyme activity was measured with 4MU-chitobiose and 4-deoxy-variant hereof.
The CHISI compound was tested as substrate. For this purpose, pure 50 kDa chitotriosidase was incubated with this substrate at 37 C in Mclvaine buffer (pH 5.5). For comparison the enzymes were in parallel incubated with 4-MU-chitobiose (Sigma). The reaction was stopped by adding excess of 0.1 M glycine-NaOH @H 10.3) and fluorescence was monitored (excitation at 366 nm, emission at 445 nm).
Even more importantly, saturating substrate concentrations (100-200 microM) can be used in the case of CHIS (Km of chitotriosidase is 50 microM). This renders a great improvement with regard to reproducibility of the assay and interpretation of results. […]

plasma chitotriosidase [4] = assay: plasma chitotriosidase in Gaucher patients following therapeutic interventions; assay type: in vivo, human; conditions: first patients in Europe treated, measured with 4MU-chitotriose, FIG. 7
Source text: Besides its use in the confirmation of the diagnosis of Gaucher disease, the measurement of plasma chitotriosidase activity is extremely valuable in decision making regarding initiation of costly therapeutic intervention and optimizing treatment dosing regimens (Aerts et al, 1997; Young et al., 1997; Cox et al., 2000). […] It can be seen that onset of disease can be accurately monitored by monitoring plasma enzyme level. Initiation of therapy results in reductions of the plasma marker of the pathological Gaucher cells. […] In many countries regular measurement of plasma chitotriosidase is now used to monitor response to therapy and increases in plasma chitotriosidase levels are used as a criterion to initiate treatment. The plasma chitotriosidase now plays an important role in the clinical management of Gaucher patients. The European Working Group on Gaucher Disease has recommended its use.
FIG. 7. […] Responses in plasma enzyme level in the first patient in Europe treated with enzyme replacement therapy (aiglucerase) and the first patient in Europe treated with substrate deprivation therapy (butyldeoxynojirimycin). Enzyme activities were measured with 4MU-chitotriose as described in Hollak et al., 1994.

plasma chitotriosidase [5] = assay: plasma chitotriosidase in sarcoidosis patients treated with corticosteroids; assay type: in vivo, human; conditions: sarcoidosis patient, orally 25 mg
Description: Sarcoidosis is treated by administration of corticosteroids. Determination of optimal drug dosage is critical but unfortunately also complicated. It was studied whether plasma chitotriosidase levels change upon treatment. […] However, tapering of the dose to 5 mg per day after 17 weeks was followed by recurrence of disease activity while chitotriosidase activity increment preceded the worsening of symptoms. Another interesting finding concerns a patient that was treated with corticosteroid pulse therapy (1000 mg methyiprednisone for three days every 2 weeks). […] This was accompanied by marked clinical improvement.

serum chitotriosidase = serum chitotriosidase after G-CSF or GM-CSF in healthy volunteers; assay type: in vivo, human; conditions: parallel to lactoferrin
Description: Neutrophil Activation. To test the potential of chitotriosidase as a marker for the release of specific granules of neutrophils, we examined samples obtained in earlier studies in which granulocyte colony stimulating factor (G-CSF) or granulocyte-macrophage colony stimulating factor (GM-CSF) were administered to healthy volunteers. In these experiments it was previously shown that degranulation of the specific granules of neutrophils occurs. Neutrophils release their specific granule content after 2 hours after G-CSF injection, as detectable by the appearance of lactoferrin in the circulation. […] The increase in lactoferrin and chitotriosidase is not due to an increase in neutrophil cell number, because these levels peak later in time, after about 12 hours. A second peak in lactoferrin and chitotriosidase levels is seen after […] after G-CSF injection.

CSF chitotriosidase = CSF chitotriosidase in an MS patient under treatment; assay type: in vivo, human; conditions: one MS patient
Description: Multiple sclerosis (MS) is a presumed T-cell mediated Thi type autoimmune disease. In the pathophysiology of multiple sclerosis (MS) an important role is envisioned for activated T-lymphocytes and macrophages. It is generally thought that macrophages and resident brain microglia are agents of the demyelization that occurs in MS. Chitotriosidase activity was determined in plasma and cerebral spine fluid (CSF) of MS patients. In CSF of patients, but not in plasma, chitotriosidase activity is clearly elevated in relation to manifestation of MS. In a MS patient receiving recombinant beta-1B interferon treatment a concomitant 10-fold reduction in CSF chitotriosidase was noted by us. These findings indicate that chitotriosidase measurement is useful to assess the presence of activated phagocytes in the brain of MS patients and correction therein following treatment.

Molecule: CC(=O)N[C@H]1[C@H](Oc2ccc3c(C)cc(=O)oc3c2)O[C@H](CO)[C@@H](O[C@@H]2O[C@H](CO)[C@@H](O)[C@H](O)[C@H]2NC(C)=O)[C@@H]1O [4-MU-chitobiose, reference compound]
substrate behaviour with other chitinases [1]: showed apparent substrate inhibition at sub saturating concentrations

substrate of chitotriosidase (release of 4-MU or PNP) (chitotriosidase): no substrate
Molecule: CC(=O)N[C@H]1C(Oc2ccc3c(C)cc(=O)oc3c2)O[C@H](CO)[C@@H](O)[C@@H]1O (some centres unmarked) [4-MU-hexosamine, 4-methylumbelliferyl-N-acetyiglucosamine]

ratio 4MU-deoxychitobioside/4Mu-chitobioside [2]: 2.1-2.4
ratio 4MU-deoxychitobioside/4Mu-chitobioside [3]: 3.0-3.2
ratio 4MU-deoxychitobioside/4Mu-chitobioside (lysozyme from human milk): 2.5-3.0
Km (50 kDa chitotriosidase; Mclvaine buffer pH 5.5): 50 µM
substrate inhibition (50 kDa chitotriosidase; pure 50 kDa chitotriosidase, pH 5.5, FIG. 3): does not show substrate inhibition
Molecule: CC(=O)N[C@H]1[C@H](Oc2ccc3c(C)cc(=O)oc3c2)O[C@H](CO)[C@@H](O[C@@H]2O[C@H](CO)C[C@H](O)[C@H]2NC(C)=O)[C@@H]1O [CHIS1, 4-methylumbellyferyl 2-acetamido-2-deoxy-4-0-(2-acetamido-2,4-dideoxy-beta-D-glucopyranosyl)-beta-Dglucopyranoside]
substrate behaviour with other chitinases [1]: far more sensitive and linear at saturating substrate concentration

substrate of chitotriosidase (release of 4-MU or PNP) (chitotriosidase): is a substrate
Molecule: CC(=O)N[C@H]1[C@H](Oc2ccc([N+](=O)[O-])cc2)O[C@H](CO)[C@@H](O[C@@H]2O[C@H](CO)[C@@H](O)[C@H](O)[C@H]2NC(C)=O)[C@@H]1O [PNP-chitobiose]

Molecule: CCCCN1C[C@H](O)[C@@H](O)[C@H](O)[C@H]1CO [butyldeoxynojirimycin, reference compound]
response in plasma chitotriosidase (plasma chitotriosidase [4]): Corrections in plasma chitotriosidase

Molecule: C[C@]12C=CC(=O)C=C1CC[C@@H]1[C@@H]2C(=O)C[C@@]2(C)[C@H]1CC[C@]2(O)C(=O)CO [prednisone]
chitotriosidase activity upon treatment (plasma chitotriosidase [5]): markedly decreased

B1: aiglucerase: enzyme replacement therapy for Gaucher disease (protein, UniProt P04062 40-536, looked up)
Lysosomal acid …: ARPCIPKSFGYSSVVCVCNATYCDSFDPPTFPALGTFSRYESTRSGRRMELSMGPIQANHTGTGLLLTLQPEQKFQKVKGFGGAMTDAAALNILALSPPAQNLLLKSYFSEEGIGYNIIRVPMASCDFSIRTYTYADTPDDFQLHNFSLPEEDTKLKIPLIHRALQLAQRPVSLLASPWTSPTWLKTNGAVNGKGSLKGQPGDIYHQTWARYFVKFLDAYAEHKLQFWAVTAENEPSAGLLSGYPFQCLGFTPEHQRDFIARDLGPTLANSTHHNVRLLMLDDQRLLLPHWAKVVLTDPEAAKYVHGIAVHWYLDFLAPAKATLGETHRLFPNTMLFASEACVGSKFWEQSVRLGSWDRGMQYSHSIITNLLYHVVGWTDWNLALNPEGGPNWVRNFVDSPIIVDITKDTFYKQPMFYHLGHFSKFIPEGSQRVGLVASQKNDLDAVALMHPDGSAVVVVLNRSSKDVPLTIKDPAVGFLETISPGYSIHTYLWRRQ
modifications: mannose-terminated glycans
notes: enzyme replacement therapy for Gaucher disease
response in plasma chitotriosidase (plasma chitotriosidase [4]): Corrections in plasma chitotriosidase

B2: G-CSF: granulocyte colony stimulating factor (protein, UniProt P09919 31-207, looked up)
Granulocyte …: TPLGPASSLPQSFLLKCLEQVRKIQGDGAALQEKLVSECATYKLCHPEELVLLGHSLGIPWAPLSSCPSQALQLAGCLSQLHSGLFLYQGLLQALEGISPELGPTLDTLQLDVADFATTIWQQMEELGMAPALQPTQGAMPAFASAFQRRAGGVLVASHLQSFLEVSYRVLRHLAQP
serum chitotriosidase levels (serum chitotriosidase): Parallel increases

B3: recombinant beta-1B interferon: recombinant beta-1B interferon treatment of an MS patient (protein, UniProt P01574 22-187, looked up, variant C17S)
Interferon beta: MSYNLLGFLQRSSNFQSQKLLWQLNGRLEYCLKDRMNFDIPEEIKQLQQFQKEDAALTIYEMLQNIFAIFRQDSSSTGWNETIVENLLANVYHQINHLKTVLEEKLEKEDFTRGKLMSSLHLKRYYGRILHYLKAKEYSHCAWTIVRVEILRNFYFINRLTGYLRN
modifications: lacks N-terminal Met, non-glycosylated
notes: recombinant beta-1B interferon treatment of an MS patient
reduction in CSF chitotriosidase (CSF chitotriosidase): 10 fold
